PubChem BioAssay (NCI)
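A five-concentration, 48-hour dose response in 96-well plates underlies each endpoint, interpolated linearly between surrounding concentrations. The concentration for 50% growth inhibition is given as GI50. The concentration for full growth arrest is given as TGI.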

Key:
Assay in all cases: growth of human tumour cells (NCI), 48 h
[1] = system: M14 melanoma
[2] = system: HOP-92 NSCLC
[3] = system: NCI/ADR-RES ovarian
[4] = system: SK-MEL-2 melanoma
[5] = system: ACHN renal
[6] = system: PC-3 prostate
[7] = system: SK-MEL-5 melanoma
[8] = system: NCI-H226 lung
[9] = system: SF-268 CNS
[10] = system: T-47D breast
[11] = system: COLO 205 colon
[12] = system: HS 578T breast
[13] = system: UO-31 renal
[14] = system: KM12 colon
[15] = system: OVCAR-4 ovarian
[16] = system: HCT-116 colon
[17] = system: NCI-H522 lung
[18] = system: HT29 colon
[19] = system: MCF7 breast
[20] = system: OVCAR-3 ovarian
[21] = system: TK-10 renal
[22] = system: NCI-H23 lung
[23] = system: 786-0 renal
[24] = system: K-562 leukemia
[25] = system: U251 CNS
[26] = system: NCI-H460 lung
[27] = system: SF-539 CNS

CCn1cc(C(=O)N/N=C/c2ccc(Br)cc2)c(=O)c2cc(F)c(N3CCNC(C)C3)c(F)c21 (centres undefined)
GI50 [1]: 1910 nM | TGI [1]: 3590 nM | GI50 [2]: 1210 nM | TGI [2]: 2580 nM | GI50 [3]: 1950 nM | TGI [3]: 3690 nM | GI50 [4]: 2020 nM | TGI [4]: 4100 nM | GI50 [5]: 1690 nM | TGI [5]: 3060 nM | GI50 [6]: 1620 nM | TGI [6]: 3140 nM | GI50 [7]: 1940 nM | TGI [7]: 4030 nM | GI50 [8]: 2150 nM | TGI [8]: 6130 nM | GI50 [9]: 1780 nM | TGI [9]: 3450 nM | GI50 [10]: 1650 nM | TGI [10]: 3470 nM | GI50 [11]: 1760 nM | TGI [11]: 3420 nM | GI50 [12]: 1990 nM | TGI [12]: 5900 nM | GI50 [13]: 1560 nM | TGI [13]: 2920 nM | GI50 [14]: 1860 nM | TGI [14]: 3500 nM | GI50 [15]: 2480 nM | TGI [15]: 7540 nM | GI50 [16]: 1540 nM | TGI [16]: 3160 nM | GI50 [17]: 1850 nM | TGI [17]: 3550 nM | GI50 [18]: 1680 nM | TGI [18]: 3180 nM | GI50 [19]: 1560 nM | TGI [19]: 3130 nM | GI50 [20]: 1790 nM | TGI [20]: 3380 nM | GI50 [21]: 1740 nM | TGI [21]: 3170 nM | GI50 [22]: 1840 nM | TGI [22]: 3540 nM | GI50 [23]: 1680 nM | TGI [23]: 3210 nM | GI50 [24]: 1500 nM | TGI [24]: 3170 nM | GI50 [25]: 1660 nM | TGI [25]: 3120 nM | GI50 [26]: 1610 nM | TGI [26]: 3160 nM | GI50 [27]: 1690 nM | TGI [27]: 3100 nM
